Experimental data reported in patent US20220267313A1, “DIHYDROPYRIMIDINE DERIVATIVES AND USES THEREOF IN THE TREATMENT OF HBV INFECTION OR OF HBV-INDUCED DISEASES” (Janssen Sciences Ireland Unlimited Company, priority 2019, published 2022).

How the values were obtained:
[1] = system: HBV; assay: Anti-HBV activity: HBV DNA in culture medium by qPCR, HepG2.2.15 cells; format: cell-based; conditions: Hepatitis B virus, 144 h, 6 days treatment
Experimental: (§1) HepG2.2.15 (the HepG2.2.15 cell line can be produced by transfection of the HepG2 cell line as described in Sells, Chen, and Acs 1987 (Proc. Natl. Acad. Sci. USA 84: 1005-1009), and the HepG2 cell line is available from ATCC® under number HB-8065™)
(§2) HepG2.2.15 cells were plated into 96-well plate in 2% FBS culture medium at the density of 40,000 cells/well and 5,000 cells/well for HBV inhibitory activity and cytotoxicity determination, respectively. After incubation at 37° C., 5% CO2 overnight, cells were treated with medium containing compounds for 6 days with medium and compounds refreshed after 3 days of treatment. Each compound was tested in a 1:3 serial dilutions at 8 different concentrations in triplicate. The highest concentration of the compounds was 10 uM or 1 uM for anti-HBV activity assay and 100 uM for cytotoxicity determination.
The change of HBV DNA level induced by the compounds was assessed by quantitative real-time polymerase chain reaction (qPCR). Briefly, the HBV DNA in the culture medium was extracted using QIAamp 96 DNA Blood Kit according to the manual and then quantified by real-time PCR assay using the primers and probe in the table 1 below.
(§3) EC50 and CC50 values are calculated by the GRAPHPAD PRISM software.

[2] = Cytotoxicity determination by CCK-8 assay, HepG2.2.15 cells; format: cell-based; conditions: human, 6 days treatment
Experimental: as §1, §2
Cell viability was determined by CCK-8 assay. After 6 days of compounds treatment, 20 μl CCK-8 reagents were added to each well of cytotoxicity assay plates. Cell plates were incubated at 37° C., 5% CO2 for 2.5 h. The absorbance at 450 nm wavelength and the absorbance at 630 nm wavelength as reference was measured.
as §3

Row | Compound | EC50 [1] | CC50 at 6 days [2]
1 | COC(=O)C1=C(C23C4C5C2C2C3C4C52C(=O)O)NC(c2nccs2)=N[C@@H]1c1ccc(F)c(F)c1F (stereo in doubt) [Ib-22, (S*)-4-((2,3,4-trifluorophenyl)-6-(methoxycarbonyl)-2-(thiazolel-4-yl))-1,4-dihydropyrimidin-4-yl)cubane-5-carboxylic Acid] | > 25000 nM | 282 nM
2 | COC(=O)C1=C(C23C4C5C2C2C3C4C52C(=O)O)NC(c2nccs2)=N[C@@H]1c1ccc(F)c(F)c1Br (stereo in doubt) [Ib-13, (2S,3S,5S,6S,7S,8S)-4-((S*)-6-(2-bromo-3,4-difluorophenyl)-5-(methoxycarbonyl)-2-(thiazol-2-yl)-3,6-dihydropyrimidin-4-yl)cubane-1-carboxylic Acid] | > 25000 nM | 27 nM
3 | COC(=O)C1=C(C23C4C5C2C2C3C4C52C(=O)O)NC(c2ncc(F)cc2F)=NC1c1cccc(F)c1C (single isomer, unassigned) [Ib-26, (S*)-4-(2-(3,5-difluoropyridin-2-yl)-5-(methoxycarbonyl)-6-(3-fluoro-2-methylphenyl)-3,6-dihydropyrimidin-4-yl)cubane-1-carboxylic Acid] | > 12500 nM | 160 nM
4 | CCOC(=O)C1=C(C23C4C5C2C2C3C4C52C(=O)O)NC(c2nccs2)=N[C@H]1c1ccc(F)cc1Br (single isomer, unassigned) [Ia-6, (R*)-4-(6-(2-bromo-4-fluorophenyl)-5-(ethoxycarbonyl)-2-(thiazol-2-yl)-3,6-dihydropyrimidin-4-yl)cubane-1-carboxylic Acid] | > 12500 nM | 11.5 nM
5 | CCOC(=O)C1=C(C23C4C5C2C2C3C4C52C(=O)O)NC(c2nccs2)=N[C@H]1c1cccc(F)c1C (single isomer, unassigned) [Ib-5, (1R,2R,3R,8S)-4-((S*)-5-(ethoxycarbonyl)-6-(3-fluoro-2-methylphenyl)-2-(thiazol-2-yl)-3,6-dihydropyrimidin-4-yl)cubane-1-carboxylic Acid] | 49000 nM | 17 nM
6 | COC(=O)C1=C(C23C4C5C2C2C3C4C52C(=O)O)NC(c2nccs2)=N[C@@H]1c1ccc(F)cc1Cl (single isomer, unassigned) [Ib-3, (1R,2R,3R,8S)-4-((S*)-6-(2-chloro-4-fluorophenyl)-5-(methoxycarbonyl)-2-(thiazol-2-yl)-3,6-dihydropyrimidin-4-yl)cubane-1-carboxylic Acid] | 70000 nM | 84 nM
7 | CCOC(=O)C1=C(C23C4C5C2C2C3C4C52C(=O)O)NC(c2ncc(F)cc2F)=NC1c1cccc(F)c1C (single isomer, unassigned) [Ib-18, (S*)-4-(2-(3,5-difluoropyridin-2-yl)-5-(ethoxycarbonyl)-6-(3-fluoro-2-methylphenyl)-3,6-dihydropyrimidin-4-yl)cubane-1-carboxylic Acid] | > 12500 nM | 61 nM
8 | COC(=O)C1=C(C23C4C5C2C2C3C4C52CC(=O)O)NC(c2nccs2)=N[C@@H]1c1ccc(F)cc1Cl (single isomer, unassigned) [Ib-1, 2-((1S,2R,3R,8S)-4-((S*)-6-(2-chloro-4-fluorophenyl)-5-(methoxycarbonyl)-2-(thiazol-2-yl)-3,6-dihydropyrimidin-4-yl)cuban-1-yl)acetic Acid] | 42000 nM | 360 nM
9 | CCOC(=O)C1=C(C23C4C5C2C2C3C4C52CC(C)(C)C(=O)O)NC(c2nccs2)=N[C@@H]1c1ccc(F)c(F)c1Cl (single isomer, unassigned) [Ib-28, (S*)-3-(4-(6-(2-chloro-3,4-difluorophenyl)-5-(ethoxycarbonyl)-2-(thiazol-2-yl)-3,6-dihydropyrimidin-4-yl)cuban-1-yl)-2,2-dimethylpropanoic Acid] | 16000 nM | 26.5 nM
10 | CCCOC(=O)C1=C(C23C4C5C2C2C3C4C52C(=O)O)NC(c2nccs2)=NC1c1ccc(F)c(F)c1Cl (single isomer, unassigned) [Ib-11, (S*)-4-(6-(2-chloro-3,4-difluorophenyl)-5-(propoxycarbonyl)-2-(thiazol-2-yl)-3,6-dihydropyrimidin-4-yl)cubane-1-carboxylic Acid] | 22000 nM | 52 nM
11 | COC(=O)C1=C(C23C4C5C2C2C3C4C52C(=O)O)NC(c2nccs2)=N[C@@H]1c1cccc(F)c1C (stereo in doubt) [Ia-1, (2R,3R,5R,6R,7R,8R)-4-((R*)-6-(3-fluoro-2-methylphenyl)-5-(methoxycarbonyl)-2-(thiazol-2-yl)-3,6-dihydropyrimidin-4-yl)cubane-1-carboxylic Acid] | > 50000 nM | 204 nM
12 | CCOC(=O)C1=C(C23C4C5C2C2C3C4C52C(=O)O)NC(c2nccn2C)=NC1c1ccc(F)c(F)c1Cl (single isomer, unassigned) [Ia-4, (R*)-4-(6-(2-chloro-3,4-difluorophenyl)-5-(ethoxycarbonyl)-2-(1-methyl-1H-imidazol-2-yl)-3,6-dihydropyrimidin-4-yl)cubane-1-carboxylic Acid] | > 50000 nM | 55 nM
13 | CC(C)OC(=O)C1=C(C23C4C5C2C2C3C4C52C(=O)O)NC(c2nccs2)=NC1c1ccc(F)c(F)c1Cl (single isomer, unassigned) [Ib-12, (S*)-6-(6-Carboxy-cuban-3-yl)-4-(2-chloro-3,4-difluoro-phenyl)-2-thiazol-2-yl-1,4-dihydro-pyrimidine-5-carboxylic Acid Isopropyl Ester] | 28000 nM | 37 nM
14 | CCOC(=O)C1=C(C23C4C5C2C2C3C4C52C(=O)O)NC(c2nccs2)=N[C@@H]1c1ccccc1Cl (stereo in doubt) [Ib-25, (2S,3S,5S,6S,7S,8S)-4-((S*)-6-(2-chlorophenyl)-5-(ethoxycarbonyl)-2-(thiazol-2-yl)-3,6-dihydropyrimidin-4-yl)cubane-1-carboxylic Acid] | > 50000 nM | 65 nM
15 | CCOC(=O)C1=C(C23C4C5C2C2C3C4C52C(=O)O)NC(c2nccs2)=N[C@@H]1c1cccc(F)c1Br (single isomer, unassigned) [Ib-19, (1S,2R,3S,8S)-4-((S*)-6-(2-bromo-3-fluorophenyl)-5-(ethoxycarbonyl)-2-(thiazol-2-yl)-3,6-dihydropyrimidin-4-yl)cubane-1-carboxylic Acid] | > 25000 nM | 12.5 nM
16 | CCOC(=O)C1=C(C23C4C5C2C2C3C4C52C(=O)O)NC(c2nccs2)=N[C@H]1c1ccc(F)cc1 (stereo in doubt) [Ib-24, (2S,3S,5S,6S,7S,8S)-4-((S*)-5-(ethoxycarbonyl)-6-(4-fluorophenyl)-2-(thiazol-2-yl)-3,6-dihydropyrimidin-4-yl)cubane-1-carboxylic Acid] | > 25000 nM | 223 nM
17 | COC(=O)C1=C(C23C4C5C2C2C3C4C52C(=O)O)NC(c2nccs2)=N[C@@H]1c1ccc(F)c(F)c1Cl (single isomer, unassigned) [Ib-4, (1R,2R,3R,8S)-4-((S*)-6-(2-chloro-3,4-difluorophenyl)-5-(methoxycarbonyl)-2-(thiazol-2-yl)-3,6-dihydropyrimidin-4-yl)cubane-1-carboxylic Acid] | 51000 nM | 22 nM
18 | COC(=O)C1=C(C23C4C5C2C2C3C4C52C(=O)O)NC(c2nccn2C)=NC1c1ccc(F)c(F)c1Cl (single isomer, unassigned) [Ia-2, (R*)-4-(6-(2-chloro-3,4-difluorophenyl)-5-(methoxycarbonyl)-2-(1-methyl-1H-imidazol-2-yl)-3,6-dihydropyrimidin-4-yl)cubane-1-carboxylic Acid] | > 100000 nM | 295 nM
19 | CCOC(=O)C1=C(C23C4C5C2C2C3C4C52C(=O)O)NC(c2nccs2)=N[C@@H]1c1ccc(F)cc1Cl (stereo in doubt) [Ib-6, (2S,3S,5S,6S,7S,8S)-4-((S*)-6-(2-chloro-4-fluorophenyl)-5-(ethoxycarbonyl)-2-(thiazol-2-yl)-3,6-dihydropyrimidin-4-yl)cubane-1-carboxylic Acid] | > 50000 nM | 18 nM
20 | CCOC(=O)C1=C(C23C4C5C2C2C3C4C52C(=O)O)NC(c2nccs2)=NC1c1ccc(F)c(F)c1F (single isomer, unassigned) [Ib-20, (S*)-4-(5-(ethoxycarbonyl)-2-(thiazol-2-yl)-6-(2,3,4-trifluorophenyl)-3,6-dihydropyrimidin-4-yl)cubane-1-carboxylic Acid] | 46000 nM | 28 nM
21 | COC(=O)C1=C(C23C4C5C2C2C3C4C52C(=O)O)NC(c2nccs2)=NC1c1ccc(F)cc1C (single isomer, unassigned) [Ib-21, (S*)-4-(6-(4-fluoro-2-methylphenyl)-5-(methoxycarbonyl)-2-(thiazol-2-yl)-3,6-dihydropyrimidin-4-yl)cubane-1-carboxylic Acid] | > 50000 nM | 250 nM
22 | CCOC(=O)C1=C(C23C4C5C2C2C3C4C52C(=O)O)NC(c2nccs2)=N[C@@H]1c1cccc(F)c1Cl (stereo in doubt) [Ib-15, (2S,3S,5S,6S,7S,8S)-4-((S*)-6-(2-chloro-3-fluorophenyl)-5-(ethoxycarbonyl)-2-(thiazol-2-yl)-3,6-dihydropyrimidin-4-yl)cubane-1-carboxylic Acid] | > 50000 nM | 19 nM
